Experimental data as given in patent US8569344B2, “N-piperidinyl acetamide derivatives as calcium channel blockers” (Zalicus Pharmaceuticals Ltd., priority 2008, dated 2013).

Key:
[1] = target: T1, human α1G T-type channels (Homo sapiens, UniProt O43497); experiment: T-type calcium channel block, whole cell patch clamp in HEK cells (α1G); format: cell-based; settings: HEK cells, patch clamp, mainly non-inactivated protocol; values above 10 μM shown as 10 μM, below 0.30 μM shown as 0.30 μM; read-out: T-type Calcium Channel Block α1G IC50
T1 construct: expressed in transfected cells; host or cells: HEK 293

[2] = target: T2, human α1H T-type channels (Homo sapiens, UniProt O95180); experiment: T-type calcium channel block, whole cell patch clamp in HEK cells (α1H); format: cell-based; settings: HEK cells, patch clamp, mainly non-inactivated protocol; values above 10 μM shown as 10 μM; read-out: T-type Calcium Channel Block α1H IC50
T2 construct: expressed in transfected cells; host or cells: HEK 293
T2 sequence (O95180 whole entry): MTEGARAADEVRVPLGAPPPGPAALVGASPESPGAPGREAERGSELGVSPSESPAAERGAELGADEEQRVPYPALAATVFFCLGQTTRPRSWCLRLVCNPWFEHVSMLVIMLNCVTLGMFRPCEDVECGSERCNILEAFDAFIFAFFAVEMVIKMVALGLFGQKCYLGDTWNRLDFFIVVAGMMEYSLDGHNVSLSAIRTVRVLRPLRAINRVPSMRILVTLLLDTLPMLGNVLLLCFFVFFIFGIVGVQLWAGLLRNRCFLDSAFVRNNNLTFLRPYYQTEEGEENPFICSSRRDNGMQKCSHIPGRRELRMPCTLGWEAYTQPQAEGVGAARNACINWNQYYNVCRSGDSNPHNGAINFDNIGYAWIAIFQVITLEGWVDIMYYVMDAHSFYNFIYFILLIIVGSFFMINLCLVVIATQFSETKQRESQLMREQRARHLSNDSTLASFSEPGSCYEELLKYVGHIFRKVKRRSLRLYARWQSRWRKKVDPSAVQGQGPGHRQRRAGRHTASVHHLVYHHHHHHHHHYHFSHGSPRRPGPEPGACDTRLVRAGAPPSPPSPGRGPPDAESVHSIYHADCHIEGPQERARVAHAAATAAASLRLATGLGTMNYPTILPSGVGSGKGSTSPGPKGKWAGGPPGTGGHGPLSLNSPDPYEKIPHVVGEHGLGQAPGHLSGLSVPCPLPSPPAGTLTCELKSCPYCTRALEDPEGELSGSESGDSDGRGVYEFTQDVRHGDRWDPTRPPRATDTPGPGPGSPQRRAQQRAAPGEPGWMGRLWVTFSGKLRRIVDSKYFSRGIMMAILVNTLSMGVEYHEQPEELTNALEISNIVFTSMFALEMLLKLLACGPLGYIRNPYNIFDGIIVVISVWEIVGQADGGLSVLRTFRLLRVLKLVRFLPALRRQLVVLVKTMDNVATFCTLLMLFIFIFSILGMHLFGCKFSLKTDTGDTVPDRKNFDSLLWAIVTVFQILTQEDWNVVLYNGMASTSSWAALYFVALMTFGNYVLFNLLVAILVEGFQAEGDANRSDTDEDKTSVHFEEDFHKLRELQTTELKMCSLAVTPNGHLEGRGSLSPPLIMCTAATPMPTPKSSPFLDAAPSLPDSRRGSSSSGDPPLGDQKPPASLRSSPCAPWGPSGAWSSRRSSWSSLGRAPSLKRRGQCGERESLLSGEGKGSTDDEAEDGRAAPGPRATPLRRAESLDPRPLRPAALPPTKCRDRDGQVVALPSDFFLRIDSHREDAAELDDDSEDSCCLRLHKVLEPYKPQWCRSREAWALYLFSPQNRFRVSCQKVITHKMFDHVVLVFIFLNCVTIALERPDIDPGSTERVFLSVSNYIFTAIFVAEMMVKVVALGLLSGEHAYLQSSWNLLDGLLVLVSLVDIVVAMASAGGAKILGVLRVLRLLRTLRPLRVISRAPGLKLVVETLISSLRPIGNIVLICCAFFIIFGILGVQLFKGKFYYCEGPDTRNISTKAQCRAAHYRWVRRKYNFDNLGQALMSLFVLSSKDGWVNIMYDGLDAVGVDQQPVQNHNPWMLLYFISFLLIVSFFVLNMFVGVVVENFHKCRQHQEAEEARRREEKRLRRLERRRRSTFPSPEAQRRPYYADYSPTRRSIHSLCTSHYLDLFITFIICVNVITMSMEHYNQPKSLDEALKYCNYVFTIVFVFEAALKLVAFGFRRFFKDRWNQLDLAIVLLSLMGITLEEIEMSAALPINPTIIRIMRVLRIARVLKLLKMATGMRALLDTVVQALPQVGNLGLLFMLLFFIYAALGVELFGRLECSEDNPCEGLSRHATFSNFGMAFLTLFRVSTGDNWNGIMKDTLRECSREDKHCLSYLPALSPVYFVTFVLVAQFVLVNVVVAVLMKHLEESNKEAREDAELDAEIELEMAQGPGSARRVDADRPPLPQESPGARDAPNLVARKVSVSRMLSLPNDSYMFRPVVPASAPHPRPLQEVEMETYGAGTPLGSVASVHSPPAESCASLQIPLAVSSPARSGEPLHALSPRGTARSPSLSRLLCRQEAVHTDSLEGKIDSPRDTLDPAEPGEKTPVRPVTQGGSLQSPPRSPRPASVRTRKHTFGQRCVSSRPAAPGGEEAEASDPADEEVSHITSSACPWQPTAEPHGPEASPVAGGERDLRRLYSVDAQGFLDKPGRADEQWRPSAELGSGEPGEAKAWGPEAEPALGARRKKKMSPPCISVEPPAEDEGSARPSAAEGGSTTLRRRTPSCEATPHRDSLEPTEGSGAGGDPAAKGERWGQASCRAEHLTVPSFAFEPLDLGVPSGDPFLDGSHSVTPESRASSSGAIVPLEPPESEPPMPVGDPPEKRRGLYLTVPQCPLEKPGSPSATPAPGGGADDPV

T1 sequence (O43497 whole entry): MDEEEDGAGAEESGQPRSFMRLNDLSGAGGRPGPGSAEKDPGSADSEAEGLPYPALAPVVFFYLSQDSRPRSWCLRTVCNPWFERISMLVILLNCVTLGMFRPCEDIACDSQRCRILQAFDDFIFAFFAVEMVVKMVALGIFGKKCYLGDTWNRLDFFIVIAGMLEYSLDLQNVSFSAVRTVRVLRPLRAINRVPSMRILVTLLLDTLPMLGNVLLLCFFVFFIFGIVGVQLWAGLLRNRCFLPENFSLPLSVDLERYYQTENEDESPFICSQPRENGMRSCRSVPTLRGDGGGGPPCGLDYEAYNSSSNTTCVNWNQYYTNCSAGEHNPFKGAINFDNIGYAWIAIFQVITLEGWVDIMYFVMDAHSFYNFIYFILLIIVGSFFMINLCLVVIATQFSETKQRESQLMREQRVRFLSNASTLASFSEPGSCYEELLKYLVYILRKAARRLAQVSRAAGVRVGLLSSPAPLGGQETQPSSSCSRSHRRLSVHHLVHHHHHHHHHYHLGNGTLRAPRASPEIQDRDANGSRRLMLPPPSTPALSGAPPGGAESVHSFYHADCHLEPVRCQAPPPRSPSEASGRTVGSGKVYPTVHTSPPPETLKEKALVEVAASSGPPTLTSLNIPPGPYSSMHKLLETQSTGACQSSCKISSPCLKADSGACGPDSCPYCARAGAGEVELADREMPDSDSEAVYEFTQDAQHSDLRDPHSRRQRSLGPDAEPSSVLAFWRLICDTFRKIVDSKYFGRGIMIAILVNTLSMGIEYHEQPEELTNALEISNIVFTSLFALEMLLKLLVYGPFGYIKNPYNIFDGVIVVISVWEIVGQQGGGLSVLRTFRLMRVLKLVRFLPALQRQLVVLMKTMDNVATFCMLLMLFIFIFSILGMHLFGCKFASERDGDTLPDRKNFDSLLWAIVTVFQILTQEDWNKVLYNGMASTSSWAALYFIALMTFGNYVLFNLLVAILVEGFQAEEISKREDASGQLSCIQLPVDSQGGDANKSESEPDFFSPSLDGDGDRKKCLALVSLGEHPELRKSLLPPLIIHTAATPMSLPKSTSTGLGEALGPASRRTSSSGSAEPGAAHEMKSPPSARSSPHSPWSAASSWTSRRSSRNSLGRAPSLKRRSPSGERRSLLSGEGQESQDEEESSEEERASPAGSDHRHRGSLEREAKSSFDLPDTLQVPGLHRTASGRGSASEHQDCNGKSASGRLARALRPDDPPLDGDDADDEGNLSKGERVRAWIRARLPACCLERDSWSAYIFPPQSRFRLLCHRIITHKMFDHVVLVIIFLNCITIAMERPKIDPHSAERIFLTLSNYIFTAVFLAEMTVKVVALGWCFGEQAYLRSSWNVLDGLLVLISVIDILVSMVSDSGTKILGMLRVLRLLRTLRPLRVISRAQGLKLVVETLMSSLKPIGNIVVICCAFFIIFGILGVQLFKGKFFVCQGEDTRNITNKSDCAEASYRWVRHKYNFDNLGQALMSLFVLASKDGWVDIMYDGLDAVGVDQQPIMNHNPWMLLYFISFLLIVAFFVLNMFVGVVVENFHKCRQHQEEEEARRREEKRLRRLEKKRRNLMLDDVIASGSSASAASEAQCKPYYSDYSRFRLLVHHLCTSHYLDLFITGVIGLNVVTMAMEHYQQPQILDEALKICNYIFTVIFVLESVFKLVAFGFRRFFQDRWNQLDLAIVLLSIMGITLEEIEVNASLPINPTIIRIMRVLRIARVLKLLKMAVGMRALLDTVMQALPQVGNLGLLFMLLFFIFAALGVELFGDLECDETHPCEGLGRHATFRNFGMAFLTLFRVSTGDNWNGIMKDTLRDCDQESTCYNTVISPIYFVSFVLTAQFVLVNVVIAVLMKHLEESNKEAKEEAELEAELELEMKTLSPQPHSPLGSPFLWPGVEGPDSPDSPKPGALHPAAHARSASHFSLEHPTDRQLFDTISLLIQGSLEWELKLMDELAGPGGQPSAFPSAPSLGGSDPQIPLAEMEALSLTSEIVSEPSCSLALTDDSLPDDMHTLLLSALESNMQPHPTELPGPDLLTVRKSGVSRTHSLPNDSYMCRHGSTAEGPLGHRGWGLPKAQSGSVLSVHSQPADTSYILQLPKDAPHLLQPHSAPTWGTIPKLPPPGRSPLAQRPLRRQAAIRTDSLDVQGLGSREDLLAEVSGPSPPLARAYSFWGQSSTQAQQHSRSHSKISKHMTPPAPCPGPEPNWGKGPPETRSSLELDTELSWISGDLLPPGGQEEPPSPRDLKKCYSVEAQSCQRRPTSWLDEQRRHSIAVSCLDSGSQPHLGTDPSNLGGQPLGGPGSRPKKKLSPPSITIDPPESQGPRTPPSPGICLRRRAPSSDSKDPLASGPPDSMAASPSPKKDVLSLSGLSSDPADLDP

Row | Compound | IC50 [1] [nM] | IC50 [2] [nM]
1 | CC1CCCCC1NCC(=O)N1CCC(CNC(=O)c2cc(F)cc(C(F)(F)F)c2)CC1 (centres unmarked) [Compound 274, 3-fluoro-N-((1-(2-(2-methylcyclohexylamino)acetyl)piperidin-4-yl)methyl)-5-(trifluoromethyl)benzamide] | < 300 | 660
2 | O=C(NCC1CCN(C(=O)CNC2CCCCC2O)CC1)c1cc(F)cc(C(F)(F)F)c1 (centres unmarked) [Compound 275, 3-fluoro-N-((1-(2-(2-hydroxycyclohexylamino)acetyl)piperidin-4-yl)methyl)-5-(trifluoromethyl)benzamide] | 1990 | > 10000
3 | O=C(NCC1CCN(C(=O)CNC2CCCCC2)CC1)c1cc(F)cc(C(F)(F)F)c1 [Compound 276, N-((1-(2-(cyclohexylamino)acetyl)piperidin-4-yl)methyl)-3-fluoro-5-(trifluoromethyl)benzamide] | 310 | 1090
4 | C[C@@H]1CCCCN1CC(=O)N1CCC(CNC(=O)c2cc(F)cc(C(F)(F)F)c2)CC1 [Compound 279, (R)-3-fluoro-N-((1-(2-(2-methyl-piperidin-1-yl)acetyl)piperidin-4-yl)methyl)-5-(trifluoromethyl)benzamide] | > 10000 | > 10000
5 | CCC1CCCN1CC(=O)N1CCC(CNC(=O)c2cc(F)cc(C(F)(F)F)c2)CC1 (centres unmarked) [Compound 280, N-((1-(2-(2-ethylpyrrolidin-1-yl)acetyl)piperidin-4-yl)methyl)-3-fluoro-5-(trifluoromethyl)benzamide] | 9700 | 5590
6 | O=C(NCC1CCN(C(=O)CN2CCCC(C(F)(F)F)C2)CC1)c1cc(F)cc(C(F)(F)F)c1 (centres unmarked) [Compound 282, 3-fluoro-5-(trifluoromethyl)-N-((1-(2-(3-(trifluoromethyl)piperidin-1-yl)acetyl)piperidin-4-yl)methyl)benzamide] | 2500 | 7160
7 | CC(C)(C)C1CCN(CC(=O)N2CCC(CNC(=O)c3cc(F)cc(C(F)(F)F)c3)CC2)CC1 [Compound 285, N-((1-(2-(4-tert-butylpiperidin-1-yl)acetyl)piperidin-4-yl)methyl)-3-fluoro-5-(trifluoromethyl)benzamide] | 4940 | > 10000
8 | C[C@H]1CC[C@H](NCC(=O)N2CCC(CNC(=O)c3cc(F)cc(C(F)(F)F)c3)CC2)CC1 [Compound 291, 3-fluoro-N-((1-(2-((1r,4r)-4-methylcyclohexylamino)acetyl)piperidin-4-yl)methyl)-5-(trifluoromethyl)benzamide] | < 300 | 510
9 | CC(C)(C)C(=O)NCCN1CCC(CNC(=O)c2cccc(OC(F)(F)F)c2)CC1 [Compound 292, N-((1-(2-pivalamidoethyl)piperidin-4-yl)methyl)-3-(trifluoromethoxy)benzamide] | 360 | 740
10 | CC(C)(C)C(=O)NCCN1CCC(CNC(=O)c2cc(F)cc(F)c2)CC1 [Compound 293, 3,5-difluoro-N-((1-(2-pivalamidoethyl)piperidin-4-yl)methyl)benzamide] | 5180 | 4070
11 | CC(C)(C)C(=O)NCCN1CCC(CNC(=O)c2cc(F)cc(C(F)(F)F)c2)CC1 [Compound 294, 3-fluoro-N-((1-(2-pivalamidoethyl)piperidin-4-yl)methyl)-5-(trifluoromethyl)benzamide] | 570 | 810
12 | Cc1cc(C)cc(C(=O)NCC2CCN(CCNC(=O)C(C)(C)C)CC2)c1 [Compound 295, 3,5-dimethyl-N-((1-(2-pivalamidoethyl)piperidin-4-yl)methyl)benzamide] | 1340 | 1260
13 | CC(C)(C)C(=O)NCCN1CCC(CNC(=O)c2cccc(C(F)(F)F)c2)CC1 [Compound 296, N-((1-(2-pivalamidoethyl)piperidin-4-yl)methyl)-3-(trifluoromethyl)benzamide] | 610 | 1100
14 | CC(C)(C)C(=O)NCCN1CCC(CNC(=O)/C=C/c2cc(F)cc(F)c2)CC1 [Compound 297, (E)-3-(3,5-difluorophenyl)-N-((1-(2-pivalamidoethyl)piperidin-4-yl)methyl)acrylamide] | > 10000 | > 10000
15 | CC(C)(C)C(=O)NCCN1CCC(CNC(=O)c2cc(Cl)cc(Cl)c2)CC1 [Compound 298, 3,5-dichloro-N-((1-(2-pivalamidoethyl)piperidin-4-yl)methyl)benzamide] | < 300 | 280
16 | CC(C)(C)C(=O)NCCN1CCC(CNC(=O)c2cccc(Cl)c2)CC1 [Compound 299, 3-chloro-N-((1-(2-pivalamidoethyl)piperidin-4-yl)methyl)benzamide] | 1210 | 1980
17 | CC(C)(C)C(=O)NCCN1CCC(CNC(=O)/C=C/c2cc(Cl)cc(Cl)c2)CC1 [Compound 300, (E)-3-(3,5-dichlorophenyl)-N-((1-(2-pivalamidoethyl)piperidin-4-yl)methyl)acrylamide] | 2810 | 3250
18 | CC(C)(C)C(=O)NCCN1CCC(CNC(=O)c2cc(Cl)cc(C(F)(F)F)c2)CC1 [Compound 301, 3-chloro-N-((1-(2-pivalamidoethyl)piperidin-4-yl)methyl)-5-(trifluoromethyl)benzamide] | < 300 | 450
19 | CC(C)(C)C(=O)NCCN1CCC(CNC(=O)c2cc(Br)cc(C(F)(F)F)c2)CC1 [Compound 302, 3-bromo-N-((1-(2-pivalamidoethyl)piperidin-4-yl)methyl)-5-(trifluoromethyl)benzamide] | < 300 | 300
20 | COc1cc(C(=O)NCC2CCN(CCNC(=O)C(C)(C)C)CC2)cc(C(F)(F)F)c1 [Compound 303, 3-methoxy-N-((1-(2-pivalamidoethyl)piperidin-4-yl)methyl)-5-(trifluoromethyl)benzamide] | < 300 | 600
21 | CC(C)(C#N)NC(=O)CN1CCC(CNC(=O)c2cc(C(F)(F)F)cc(C(F)(F)F)c2)CC1 [Compound 304, N-((1-(2-(2-cyanopropan-2-ylamino)-2-oxoethyl)piperidin-4-yl)methyl)-3,5-bis(trifluoromethyl)benzamide] | < 300 | 370
22 | CCOC1CCN(C(=O)CN2CCC(CNC(=O)c3cc(C(F)(F)F)cc(C(F)(F)F)c3)CC2)CC1 [Compound 305, N-((1-(2-(4-ethoxypiperidin-1-yl)-2-oxoethyl)piperidin-4-yl)methyl)-3,5-bis(trifluoromethyl)benzamide] | 7420 | 4450
23 | O=C(NCC1CCN(CCNS(=O)(=O)C2CCC2)CC1)c1cc(F)cc(C(F)(F)F)c1 [Compound 306, N-((1-(2-(cyclobutanesulfonamido)ethyl)piperidin-4-yl)methyl)-3-fluoro-5-(trifluoromethyl)benzamide] | 340 | 390
24 | O=C(NCC1CCN(CCNS(=O)(=O)C2CCCC2)CC1)c1cc(F)cc(C(F)(F)F)c1 [Compound 307, N-((1-(2-(cyclopentanesulfonamido)ethyl)piperidin-4-yl)methyl)-3-fluoro-5-(trifluoromethyl)benzamide] | < 300 | 340
25 | O=C(NCC1CCN(CCNS(=O)(=O)CCCF)CC1)c1cc(F)cc(C(F)(F)F)c1 [Compound 308, 3-fluoro-N-((1-(2-(3-fluoropropylsulfonamido)ethyl)piperidin-4-yl)methyl)-5-(trifluoromethyl)benzamide] | 1230 | 880
